Assay results taken from ChEMBL document CHEMBL1201862, “PubChem BioAssay data set” (2004).
The source made the active and inactive calls.

Columns and labels:
[1] = inhibitors of firefly luciferase expression or activity, dose response, H4 neuroglioma cells, luminescence (AID 1990); type: functional, cell-based
[2] = Luminescence Cell-Based Dose Response HTS to Identify Inhibitors of 5'UTR Stem-Loop Driven Prion Protein mRNA Translation in H4 Neuroglioblastoma Cells. [Related pubchem assays: 1827 (Project Summary), 1813 (Primary HTS)]; type: functional
[3] = inhibitors of SNCA 5'UTR-driven reporter translation, confirmation, H4 neuroglioma cells, luminescence (AID 1988); type: functional, cell-based
[4] = target: T1, Replicative DNA helicase DnaB (Mycobacterium tuberculosis, UniProt P9WMR3); assay: DnaB intein splicing inhibitors, dose response, biochemical, cell-free fluorescence (AID 449749); type: functional
T1 sequence (P9WMR3 whole entry): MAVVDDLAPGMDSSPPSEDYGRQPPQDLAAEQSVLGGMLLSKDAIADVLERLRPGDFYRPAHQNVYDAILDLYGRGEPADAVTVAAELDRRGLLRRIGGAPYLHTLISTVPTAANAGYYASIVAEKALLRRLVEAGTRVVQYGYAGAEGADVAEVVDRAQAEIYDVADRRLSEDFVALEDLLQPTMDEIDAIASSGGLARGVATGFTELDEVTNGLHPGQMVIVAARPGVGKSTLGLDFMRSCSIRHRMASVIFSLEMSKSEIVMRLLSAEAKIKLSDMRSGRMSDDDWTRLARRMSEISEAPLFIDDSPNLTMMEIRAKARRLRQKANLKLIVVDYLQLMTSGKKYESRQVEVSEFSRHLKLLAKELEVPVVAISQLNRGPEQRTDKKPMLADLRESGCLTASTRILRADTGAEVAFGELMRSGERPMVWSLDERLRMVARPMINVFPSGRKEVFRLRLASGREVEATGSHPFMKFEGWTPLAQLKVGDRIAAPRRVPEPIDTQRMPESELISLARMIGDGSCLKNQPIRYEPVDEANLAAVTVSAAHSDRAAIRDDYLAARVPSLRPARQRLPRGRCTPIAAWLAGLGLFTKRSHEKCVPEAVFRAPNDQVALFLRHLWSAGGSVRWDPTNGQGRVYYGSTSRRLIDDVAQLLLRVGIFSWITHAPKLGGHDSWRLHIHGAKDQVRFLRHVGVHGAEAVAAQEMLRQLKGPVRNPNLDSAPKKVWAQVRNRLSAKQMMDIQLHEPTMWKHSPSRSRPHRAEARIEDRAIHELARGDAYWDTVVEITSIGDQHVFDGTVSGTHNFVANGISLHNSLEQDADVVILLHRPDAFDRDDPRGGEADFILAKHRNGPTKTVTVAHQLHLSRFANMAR

Protein RecA = target: T2, Protein RecA (Mycobacterium tuberculosis, UniProt P9WHJ3); assay: Fluorescence Cell-Free Homogeneous Dose Retest to Identify Inhibitors of RecA-Intein Splicing Activity. [Related pubchem assays (depositor defined):AID2097, AID2223, AID489010, AID492950]; type: functional
T2 sequence (P9WHJ3 whole entry): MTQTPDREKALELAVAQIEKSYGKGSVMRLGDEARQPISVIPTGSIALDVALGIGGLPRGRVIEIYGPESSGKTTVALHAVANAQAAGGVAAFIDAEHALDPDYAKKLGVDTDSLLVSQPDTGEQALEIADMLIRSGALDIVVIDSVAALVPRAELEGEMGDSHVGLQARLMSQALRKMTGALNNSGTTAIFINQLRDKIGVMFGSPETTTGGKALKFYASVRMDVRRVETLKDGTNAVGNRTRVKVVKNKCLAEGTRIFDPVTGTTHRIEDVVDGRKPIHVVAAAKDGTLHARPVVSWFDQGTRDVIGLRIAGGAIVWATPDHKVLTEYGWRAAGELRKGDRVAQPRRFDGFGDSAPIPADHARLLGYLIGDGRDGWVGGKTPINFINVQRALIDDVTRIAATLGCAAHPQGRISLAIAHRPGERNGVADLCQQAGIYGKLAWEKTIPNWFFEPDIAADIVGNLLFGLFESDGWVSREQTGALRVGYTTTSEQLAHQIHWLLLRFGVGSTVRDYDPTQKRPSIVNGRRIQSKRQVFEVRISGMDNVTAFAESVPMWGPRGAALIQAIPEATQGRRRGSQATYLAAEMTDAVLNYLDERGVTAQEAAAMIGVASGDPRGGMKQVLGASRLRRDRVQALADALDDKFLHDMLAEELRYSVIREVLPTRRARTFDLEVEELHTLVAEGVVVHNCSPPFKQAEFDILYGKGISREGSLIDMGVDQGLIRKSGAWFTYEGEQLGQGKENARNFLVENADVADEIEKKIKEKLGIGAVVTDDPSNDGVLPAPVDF

INS1 = assay: beta cell apoptosis inhibitors, cytokine rescue, dose response, luminescence, retest (AID 449756); type: functional, cell-based; details: Rattus norvegicus;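 further: cell death triggered by IL-1 beta plus TNF-alpha plus IFN-gamma mixture; protective hits raise ATP signal compared with cytokine alone wells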
[5] = target: T3, Mitochondrial peptide methionine sulfoxide reductase (Bos taurus, UniProt P54149); assay: Absorbance-based biochemical high throughput dose response assay for activators of Methionine sulfoxide reductase A (MsrA).; type: functional
T3 sequence (P54149 whole entry): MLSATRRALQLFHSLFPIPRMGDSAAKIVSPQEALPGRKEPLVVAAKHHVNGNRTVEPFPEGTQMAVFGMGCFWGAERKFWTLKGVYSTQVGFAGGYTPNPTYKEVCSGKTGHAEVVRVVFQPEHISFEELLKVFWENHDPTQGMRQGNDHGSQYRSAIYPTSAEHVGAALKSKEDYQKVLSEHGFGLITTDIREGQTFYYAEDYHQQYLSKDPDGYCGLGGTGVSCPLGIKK

[6] = target: T4, Histone-lysine N-methyltransferase NSD2 (Homo sapiens, UniProt O96028); type: biochemical
T4 sequence (O96028 whole entry): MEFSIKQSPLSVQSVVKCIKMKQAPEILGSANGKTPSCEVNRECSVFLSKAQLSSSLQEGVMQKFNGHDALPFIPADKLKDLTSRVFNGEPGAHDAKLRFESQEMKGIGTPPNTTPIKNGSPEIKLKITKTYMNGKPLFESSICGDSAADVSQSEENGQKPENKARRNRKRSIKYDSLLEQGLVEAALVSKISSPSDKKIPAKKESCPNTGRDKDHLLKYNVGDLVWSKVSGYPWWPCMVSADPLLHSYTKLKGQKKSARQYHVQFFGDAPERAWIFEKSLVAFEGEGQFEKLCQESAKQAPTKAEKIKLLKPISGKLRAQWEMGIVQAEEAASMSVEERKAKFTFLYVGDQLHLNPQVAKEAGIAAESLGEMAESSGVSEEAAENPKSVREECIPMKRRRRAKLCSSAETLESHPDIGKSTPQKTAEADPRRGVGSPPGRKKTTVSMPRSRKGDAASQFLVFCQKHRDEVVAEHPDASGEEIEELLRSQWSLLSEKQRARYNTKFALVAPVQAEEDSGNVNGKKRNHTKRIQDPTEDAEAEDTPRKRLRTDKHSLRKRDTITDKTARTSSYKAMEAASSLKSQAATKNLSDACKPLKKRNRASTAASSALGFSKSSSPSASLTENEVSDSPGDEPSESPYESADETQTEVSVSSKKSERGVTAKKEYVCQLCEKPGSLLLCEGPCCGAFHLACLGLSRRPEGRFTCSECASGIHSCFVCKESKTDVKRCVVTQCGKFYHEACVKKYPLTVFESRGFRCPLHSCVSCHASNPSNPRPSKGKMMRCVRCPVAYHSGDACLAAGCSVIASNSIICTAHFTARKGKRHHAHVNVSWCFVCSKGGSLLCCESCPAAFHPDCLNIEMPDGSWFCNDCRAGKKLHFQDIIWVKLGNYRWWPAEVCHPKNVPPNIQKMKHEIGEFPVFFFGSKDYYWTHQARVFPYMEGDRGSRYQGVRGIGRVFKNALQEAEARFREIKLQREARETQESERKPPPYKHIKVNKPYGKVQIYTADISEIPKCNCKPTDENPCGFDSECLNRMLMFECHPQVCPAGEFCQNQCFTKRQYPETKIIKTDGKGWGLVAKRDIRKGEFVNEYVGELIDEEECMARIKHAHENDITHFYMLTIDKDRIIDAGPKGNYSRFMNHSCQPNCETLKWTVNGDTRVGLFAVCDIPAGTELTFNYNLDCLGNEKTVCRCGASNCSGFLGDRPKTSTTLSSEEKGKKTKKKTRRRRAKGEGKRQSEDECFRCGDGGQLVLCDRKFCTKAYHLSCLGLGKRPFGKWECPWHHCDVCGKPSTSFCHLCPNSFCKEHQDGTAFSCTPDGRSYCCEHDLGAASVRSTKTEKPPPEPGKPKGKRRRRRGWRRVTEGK

[7] = target: Tyrosine-protein phosphatase non-receptor type 11 (Homo sapiens, UniProt Q06124); assay: SHP2 phosphatase inhibition, dose response, selectivity assay for STEP inhibitor project, biochemical (AID 602367); type: functional; details: read-out: IC50_Mean
Sequence of Tyrosine-protein phosphatase non-receptor type 11 (Q06124 whole entry): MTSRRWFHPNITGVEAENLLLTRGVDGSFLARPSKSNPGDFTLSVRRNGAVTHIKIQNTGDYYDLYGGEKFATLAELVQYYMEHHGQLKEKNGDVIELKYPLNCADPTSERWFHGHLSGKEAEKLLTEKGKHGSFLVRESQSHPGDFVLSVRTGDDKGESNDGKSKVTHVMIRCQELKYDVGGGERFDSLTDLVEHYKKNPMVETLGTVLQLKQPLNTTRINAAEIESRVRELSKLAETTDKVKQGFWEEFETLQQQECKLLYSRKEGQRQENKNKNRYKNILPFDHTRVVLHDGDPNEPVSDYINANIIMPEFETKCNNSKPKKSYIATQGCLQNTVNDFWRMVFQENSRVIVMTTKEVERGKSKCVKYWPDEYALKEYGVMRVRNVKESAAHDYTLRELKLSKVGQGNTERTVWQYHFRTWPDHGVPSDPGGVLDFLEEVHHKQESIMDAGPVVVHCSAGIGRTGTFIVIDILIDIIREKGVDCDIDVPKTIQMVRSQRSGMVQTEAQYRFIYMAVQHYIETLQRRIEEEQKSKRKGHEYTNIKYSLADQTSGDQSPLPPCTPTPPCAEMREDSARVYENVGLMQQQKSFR

[8] = target: Tyrosine-protein phosphatase non-receptor type 5 (Homo sapiens, UniProt P54829); assay: STEP phosphatase inhibitors, confirmation, biochemical, fluorescence intensity, uHTS hits (AID 602372); type: functional; details: read-out: IC50_Mean
[9] = target: Dual specificity protein phosphatase 3 (Homo sapiens, UniProt P51452); assay: VHR phosphatase inhibition, dose response, selectivity assay for STEP inhibitor project, biochemical (AID 602374); type: functional; details: read-out: IC50_Mean
Sequence of Dual specificity protein phosphatase 3 (P51452 whole entry): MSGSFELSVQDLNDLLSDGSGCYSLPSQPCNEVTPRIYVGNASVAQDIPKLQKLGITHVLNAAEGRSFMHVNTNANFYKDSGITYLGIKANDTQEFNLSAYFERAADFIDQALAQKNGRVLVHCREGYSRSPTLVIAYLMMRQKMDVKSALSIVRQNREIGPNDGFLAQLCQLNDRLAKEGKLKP

[10] = target: Glucose-6-phosphate 1-dehydrogenase (Homo sapiens, UniProt P11413); assay: human G6PD enzyme inhibitors, dose response, selectivity assay for P. falciparum G6PD inhibitor project, biochemical, fluorescence (AID 504792); type: functional
Sequence of Glucose-6-phosphate 1-dehydrogenase (P11413 whole entry): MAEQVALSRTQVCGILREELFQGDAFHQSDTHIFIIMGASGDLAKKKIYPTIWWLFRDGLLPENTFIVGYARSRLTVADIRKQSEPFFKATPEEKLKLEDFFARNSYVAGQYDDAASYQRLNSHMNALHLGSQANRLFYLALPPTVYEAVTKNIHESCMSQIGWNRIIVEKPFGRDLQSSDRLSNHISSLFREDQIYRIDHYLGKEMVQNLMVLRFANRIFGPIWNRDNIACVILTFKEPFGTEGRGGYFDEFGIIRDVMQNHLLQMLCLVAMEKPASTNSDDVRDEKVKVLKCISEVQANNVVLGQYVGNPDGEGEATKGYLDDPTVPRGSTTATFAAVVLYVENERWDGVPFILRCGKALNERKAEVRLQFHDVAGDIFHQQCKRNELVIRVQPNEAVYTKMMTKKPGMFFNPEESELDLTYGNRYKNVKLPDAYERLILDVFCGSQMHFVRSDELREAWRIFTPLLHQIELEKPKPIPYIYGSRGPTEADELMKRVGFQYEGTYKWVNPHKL

[11] = target: T3, Mitochondrial peptide methionine sulfoxide reductase; type: functional
[12] = inhibitors of HIV Env-driven cell fusion, dose response, cherry-pick (AID 652057); type: functional, cell-based
[13] = CEM21 lymphoblast cell cytotoxicity, dose response, cytotoxicity control for viral fusion inhibitor project, CellTiter-Glo luminescence, cherry-picked (AID 652042); type: functional, cell-based;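 further: potency for signal decrease meaning cytotoxicity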
[14] = ZM109 Env clade C HIV-1 fusion inhibitors, dose response, HeLa effector, CEM target cells, luciferase, cherry-pick (AID 652058); type: functional, cell-based
[15] = off-target signal loss in HeLa-CEM21 co-culture – HeLa F-luc CTL cells, cherry-picked, counter-screen for HIV-1 Env fusion inhibitor project, dose response (AID 652040); type: functional, cell-based;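 further: potency for signal decrease marking cytotoxic or nonspecific inhibition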
[16] = inhibitors of clade B AD8 Env fusion, dose response, cell-based, cherry-pick (AID 652062); type: functional;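 further: luciferase signal from cell-cell fusion driven by HIV-1 clade B AD8 Env; potency is for inhibitors of fusion seen as a drop in luminescence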
[17] = target: T5, Voltage-gated N-type calcium channel alpha-1B subunit/Amyloid beta A4 precursor protein-binding family A member 1 (Homo sapiens, UniProt Q00975+Q02410); type: protein assay
T5 sequence (Q00975 whole entry): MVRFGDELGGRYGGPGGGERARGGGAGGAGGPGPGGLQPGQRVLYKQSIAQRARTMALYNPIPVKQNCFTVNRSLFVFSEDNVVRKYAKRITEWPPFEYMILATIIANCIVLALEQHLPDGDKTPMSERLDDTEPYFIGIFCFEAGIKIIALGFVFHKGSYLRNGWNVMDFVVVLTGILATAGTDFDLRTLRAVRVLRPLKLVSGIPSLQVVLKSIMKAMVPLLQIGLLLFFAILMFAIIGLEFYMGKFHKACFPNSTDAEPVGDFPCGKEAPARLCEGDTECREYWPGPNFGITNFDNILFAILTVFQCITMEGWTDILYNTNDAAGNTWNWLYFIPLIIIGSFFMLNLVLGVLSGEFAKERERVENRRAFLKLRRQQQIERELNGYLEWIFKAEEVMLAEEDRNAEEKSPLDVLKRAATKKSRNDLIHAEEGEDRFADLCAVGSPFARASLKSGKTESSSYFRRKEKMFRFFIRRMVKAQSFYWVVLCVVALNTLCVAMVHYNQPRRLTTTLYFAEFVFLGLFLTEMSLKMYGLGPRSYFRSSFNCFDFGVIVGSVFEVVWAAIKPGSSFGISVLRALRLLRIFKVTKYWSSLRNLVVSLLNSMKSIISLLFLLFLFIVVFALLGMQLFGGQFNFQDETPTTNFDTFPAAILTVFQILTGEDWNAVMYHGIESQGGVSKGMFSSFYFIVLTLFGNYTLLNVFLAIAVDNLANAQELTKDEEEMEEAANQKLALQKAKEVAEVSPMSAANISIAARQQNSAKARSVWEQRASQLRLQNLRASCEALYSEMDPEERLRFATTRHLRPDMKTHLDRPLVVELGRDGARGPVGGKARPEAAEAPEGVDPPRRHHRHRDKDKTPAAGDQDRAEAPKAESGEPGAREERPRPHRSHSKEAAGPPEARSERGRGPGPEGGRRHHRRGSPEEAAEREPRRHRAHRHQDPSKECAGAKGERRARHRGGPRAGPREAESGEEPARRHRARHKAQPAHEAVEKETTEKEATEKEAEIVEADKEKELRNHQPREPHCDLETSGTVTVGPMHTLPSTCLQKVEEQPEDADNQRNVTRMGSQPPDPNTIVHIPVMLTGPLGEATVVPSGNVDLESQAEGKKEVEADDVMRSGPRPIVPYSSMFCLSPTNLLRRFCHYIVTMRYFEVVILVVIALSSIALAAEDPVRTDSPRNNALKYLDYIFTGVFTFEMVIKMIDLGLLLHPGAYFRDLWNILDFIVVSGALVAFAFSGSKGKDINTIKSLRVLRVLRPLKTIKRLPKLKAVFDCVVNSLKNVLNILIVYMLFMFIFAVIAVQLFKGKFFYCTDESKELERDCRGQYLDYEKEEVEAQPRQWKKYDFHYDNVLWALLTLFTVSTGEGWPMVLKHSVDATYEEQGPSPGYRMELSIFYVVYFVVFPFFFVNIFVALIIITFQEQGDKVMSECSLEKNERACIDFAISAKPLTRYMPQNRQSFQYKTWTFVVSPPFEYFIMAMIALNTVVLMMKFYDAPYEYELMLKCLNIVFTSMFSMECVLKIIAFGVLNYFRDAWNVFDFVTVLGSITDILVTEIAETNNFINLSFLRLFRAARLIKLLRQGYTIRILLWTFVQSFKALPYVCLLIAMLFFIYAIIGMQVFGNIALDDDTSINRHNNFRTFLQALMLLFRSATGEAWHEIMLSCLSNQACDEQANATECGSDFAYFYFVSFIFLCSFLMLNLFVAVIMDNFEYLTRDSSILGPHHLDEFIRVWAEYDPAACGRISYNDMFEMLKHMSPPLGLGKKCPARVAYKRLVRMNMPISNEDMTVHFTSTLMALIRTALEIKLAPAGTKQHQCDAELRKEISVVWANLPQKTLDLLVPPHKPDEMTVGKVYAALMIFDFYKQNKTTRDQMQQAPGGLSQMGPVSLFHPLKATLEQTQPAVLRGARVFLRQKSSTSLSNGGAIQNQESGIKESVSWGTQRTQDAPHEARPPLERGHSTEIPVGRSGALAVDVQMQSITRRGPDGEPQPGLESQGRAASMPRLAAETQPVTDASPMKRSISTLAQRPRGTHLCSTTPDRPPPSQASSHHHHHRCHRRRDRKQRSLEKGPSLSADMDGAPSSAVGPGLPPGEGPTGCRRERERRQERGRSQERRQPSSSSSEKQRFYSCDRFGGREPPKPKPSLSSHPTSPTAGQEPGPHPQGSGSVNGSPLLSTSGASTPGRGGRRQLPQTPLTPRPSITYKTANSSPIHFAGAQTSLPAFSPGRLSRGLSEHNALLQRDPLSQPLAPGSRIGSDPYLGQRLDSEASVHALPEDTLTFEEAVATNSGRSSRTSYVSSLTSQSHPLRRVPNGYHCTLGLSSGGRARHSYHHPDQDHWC
T5 sequence (Q02410 whole entry): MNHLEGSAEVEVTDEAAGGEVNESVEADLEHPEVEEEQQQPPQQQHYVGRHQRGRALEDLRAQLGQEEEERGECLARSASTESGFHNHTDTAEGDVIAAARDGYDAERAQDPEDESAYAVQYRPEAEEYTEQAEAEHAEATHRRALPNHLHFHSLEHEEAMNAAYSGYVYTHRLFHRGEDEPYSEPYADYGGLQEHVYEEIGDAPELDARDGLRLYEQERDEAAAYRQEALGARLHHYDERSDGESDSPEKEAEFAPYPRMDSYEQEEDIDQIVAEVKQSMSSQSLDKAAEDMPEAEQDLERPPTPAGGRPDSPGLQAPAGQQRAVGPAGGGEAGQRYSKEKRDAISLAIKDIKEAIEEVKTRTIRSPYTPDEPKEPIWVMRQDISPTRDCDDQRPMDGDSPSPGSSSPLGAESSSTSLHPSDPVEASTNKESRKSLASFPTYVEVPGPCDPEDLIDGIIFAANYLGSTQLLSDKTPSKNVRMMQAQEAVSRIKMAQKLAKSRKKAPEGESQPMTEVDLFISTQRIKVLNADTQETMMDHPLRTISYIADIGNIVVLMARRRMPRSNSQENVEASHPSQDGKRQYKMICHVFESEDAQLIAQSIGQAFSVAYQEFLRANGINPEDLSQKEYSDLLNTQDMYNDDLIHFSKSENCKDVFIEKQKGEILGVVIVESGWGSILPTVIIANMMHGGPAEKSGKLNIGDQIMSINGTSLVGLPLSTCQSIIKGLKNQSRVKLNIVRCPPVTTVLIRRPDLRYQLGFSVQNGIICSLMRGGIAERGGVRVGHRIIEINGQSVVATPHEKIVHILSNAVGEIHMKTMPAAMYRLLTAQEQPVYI

NS3 = NS3 (Hepatitis C virus, UniProt A3EZJ3); assay: PubChem AID 2173; parameters: species or system Hepacivirus hominis
[18] = target: T5, Voltage-gated N-type calcium channel alpha-1B subunit/Amyloid beta A4 precursor protein-binding family A member 1; type: protein assay; remark: listed apart in the source
[19] = target: T6, Bifunctional protein GlmU (Mycobacterium tuberculosis, UniProt P9WMN3); assay: Inhibitors of Mycobacterial Glucosamine-1-phosphate acetyl transferase (GlmU). Secondary screen.; parameters: species or system Mycobacterium tuberculosis H37Rv
T6 sequence (P9WMN3 whole entry): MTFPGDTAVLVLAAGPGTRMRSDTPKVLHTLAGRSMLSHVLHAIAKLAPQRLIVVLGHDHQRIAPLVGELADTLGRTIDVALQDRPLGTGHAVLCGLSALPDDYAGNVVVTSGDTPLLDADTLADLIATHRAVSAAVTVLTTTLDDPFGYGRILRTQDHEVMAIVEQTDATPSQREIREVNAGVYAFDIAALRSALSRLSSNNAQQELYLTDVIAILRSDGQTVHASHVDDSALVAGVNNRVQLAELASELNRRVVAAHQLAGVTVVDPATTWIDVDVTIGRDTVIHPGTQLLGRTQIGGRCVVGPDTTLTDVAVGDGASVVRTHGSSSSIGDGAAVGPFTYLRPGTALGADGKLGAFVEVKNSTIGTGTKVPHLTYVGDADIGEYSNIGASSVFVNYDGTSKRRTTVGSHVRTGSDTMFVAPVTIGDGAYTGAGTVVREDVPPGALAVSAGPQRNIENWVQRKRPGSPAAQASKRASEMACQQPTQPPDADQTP

[20] = target: Induced myeloid leukemia cell differentiation protein Mcl-1 (Homo sapiens, UniProt Q07820); type: functional
ORF 73 = ORF 73 (Human herpesvirus 8, UniProt O40947); assay: inhibitors of C-LANA binding to LBS DNA, dose response, biochemical, fluorescence polarization, cherry-picked samples (AID 504725); parameters: species or system Human gammaherpesvirus 8;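 further: fluorescence polarization of a labeled DNA duplex reporting LANA DNA binding; potency is for inhibitors that block LANA binding to the DNA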
[21] = target: Eukaryotic translation initiation factor 4E (Mus musculus, UniProt P63073); assay: eIF4E–eIF4G protein interaction inhibitors, dose response, biochemical, TR-FRET (AID 855); type: functional;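 further: potency for disrupting eIF4E binding to eIF4GI seen as loss of FRET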
Sequence of Eukaryotic translation initiation factor 4E (P63073 whole entry): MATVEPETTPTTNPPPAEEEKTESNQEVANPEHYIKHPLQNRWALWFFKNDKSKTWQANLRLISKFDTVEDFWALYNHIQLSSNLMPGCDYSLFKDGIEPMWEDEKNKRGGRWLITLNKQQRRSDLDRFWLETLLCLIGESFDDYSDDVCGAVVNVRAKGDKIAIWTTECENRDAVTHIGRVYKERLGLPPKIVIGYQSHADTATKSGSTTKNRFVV

[22] = target: DNA (cytosine-5)-methyltransferase 1 (Homo sapiens, UniProt P26358); assay: DNMT1 methyltransferase inhibitors, confirmation, biochemical, fluorescent molecular beacon (AID 602386); type: functional

NC1=C(Br)C(=O)c2ccccc2C1=O
EC50 [1]: > 60 µM (not active)
EC50 [2]: > 60 µM (not active)
EC50 [3]: > 120 µM (not active)
AC50 [4]: 2.95 µM (active)
EC50 (Protein RecA): 2.99 µM (active)
AC50 (INS1): 6.52 µM (active)
EC50 [5]: 61.9 µM (inactive)
AC50 [6]: 10 µM (active)

Sc1nnc(-c2cccnc2)n1/N=C/c1ccc(Br)s1
IC50 [7]: 4.66 µM (active)
IC50 [8]: > 80 µM (inactive)
IC50 [9]: 4.27 µM (active)

Cc1nc2c(o1)C(=O)c1ccccc1C2=Nc1ccccc1
IC50 [10]: > 80 µM (inactive)
IC50 [11]: 155 µM (inactive)
AC50 [12]: 5.92 µM (active)
AC50 [13]: 4.8 µM (active)
AC50 [14]: 3.45 µM (active)
AC50 [15]: 4.25 µM (active)
AC50 [16]: 2.74 µM (active)

O=C(O)c1ccc(-n2cccc2/C=C2/NC(=O)N(c3cccc(Cl)c3)C2=O)cc1
IC50 [17]: 3.28 µM (active)
IC50 (NS3): 6.07 µM (active)
IC50 [18]: 48.1 µM (active)
IC50 [19]: 66.8 µM (active)
IC50 [20]: 6.34 µM (active)
AC50 (ORF 73): 86.8 µM (active)
IC50 [21]: 50 µM (inactive)
IC50 [22]: 4.62 µM (active)
